Results as given in patent US20240293413A1, “COMPOUND AND METHOD FOR TREATING CHEMOTHERAPY-RELATED GASTROINTESTINAL SIDE EFFECTS” (ONQUALITY PHARMACEUTICALS CHINA LTD., priority 2021, published 2024).

Columns and labels:
Format in all cases: in vivo
[1] = test system: Chemotherapeutic agent-caused diarrhea models of Balb/c mice; test: Examples 1-229 (Table 3): oral CDK inhibitor, relief of diarrhea caused by a chemotherapeutic agent;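 note: percent of treated mice whose diarrhea grade fell below chemotherapy-group average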
Text: Construction of mouse animal models: Chemotherapeutic agent-caused diarrhea models of Balb/c mice were constructed according to the administration mode and frequency of the chemotherapeutic agent as shown in Table 3.
(§1) Balb/c mice were fed for 1 week, and then divided into groups. The experiment was divided into a control group, a chemotherapeutic agent group, and a CDK inhibitor group, each of which comprised 10 mice, to perform the administration experiment, for which the administration dosage, mode, time and frequency were shown in Table 3. The control group: being intragastrically administered with the same solvent as that used in the CDK inhibitor group (the time was shown in Table 3), and then being injected/intragastrically administered with the same solvent as that used in the chemotherapeutic agent group (the administration mode was shown in Table 3): the chemotherapeutic agent group: being intragastrically administered with the same solvent as that used in the CDK inhibitor group (the time was shown in Table 3), and then being injected/intragastrically administered with the chemotherapeutic agent (the type, administration mode and dosage were shown in Table 3); the CDK inhibitor group: being intragastrically administered with the CDK inhibitor (the time was shown in Table 3), and then being administered with the chemotherapeutic agent (the mode and dosage were shown in Table 3).
(§2) The diarrhea grading of mice was observed and recorded every day.

[2] = test system: Chemotherapeutic agent-caused constipation models of Balb/c mice; test: Examples 272-342 (Table 5): oral CDK inhibitor, relief of constipation caused by a chemotherapeutic agent; details: cycle 8 days;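 note: percent of treated mice relieved versus chemotherapy group by feces reduction rate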
Text: Construction of mouse animal models: Chemotherapeutic agent-caused constipation models of Balb/c mice were constructed according to the administration mode and frequency of the chemotherapeutic agent as shown in Table 5.
Balb/c mice were fed for 1 week, and then divided into groups. The experiment was divided into a control group, a chemotherapeutic agent group, and a CDK inhibitor group, each of which comprised 10 mice, to perform the administration experiment, for which the administration dosage, mode, time and frequency were shown in Table 5. The control group: being intragastrically administered with the same solvent as that used in the CDK inhibitor group (the time was shown in Table 5), and then being injected/intragastrically administered with the same solvent as that used in the chemotherapeutic agent group (the administration mode was shown in Table 5): the chemotherapeutic agent group: being intragastrically administered with the same solvent as that used in the CDK inhibitor group (the time was shown in […]), and then being injected/intragastrically administered with the chemotherapeutic agent (the type, administration mode and dosage were shown in Table 5): the CDK inhibitor group: being intragastrically administered with the CDK inhibitor (the time was shown in Table 5), and then being administered with the chemotherapeutic agent (the mode and dosage were shown in Table 5).
(§3) Feces reduction rate (%)=(the control group−the chemotherapeutic agent group or the CDK inhibitor group)/the control group*100%
(§4) The feces amount of mice within 3 hours was observed and recorded every day.

[3] = test system: constipation caused by a chemotherapeutic agent in Balb/c mice; test: Examples 406-443 (Table 8): various administration modes of the CDK inhibitor, relief of constipation caused by a chemotherapeutic agent; details: for Relative remission rate of other administration mode / Relative remission rate of oral administration: cycle 8 days; for improvement of constipation by oral administration, intraperitoneal injection, intramuscular injection, local administration: constipation caused by doxorubicin, etoposide, etoposide plus cisplatin, carboplatin, gemcitabine, gemcitabine plus carboplatin, under certain conditions, oral most significant;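 for Relative remission rate of oral administration: percent of treated mice relieved versus chemotherapy group by feces reduction rate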;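 for Relative remission rate of other administration mode: percent of treated mice relieved versus chemotherapy group by feces reduction rate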
Text: Balb/c mice were fed for 1 week, and then divided into groups. The experiment was divided into a control group, a chemotherapeutic agent group, CDK inhibitor groups (including an oral administration group of a CDK inhibitor, an intravenous injection group of a CDK inhibitor, an intraperitoneal injection group of a CDK inhibitor, an intramuscular injection group of a CDK inhibitor, a local administration group of a CDK inhibitor), each of which comprised 10 mice, to perform the administration experiment, for which the administration dosage, mode, time and frequency were shown in Table 8. The control group: being administered with the same solvent as that used in the CDK inhibitor group (the time and mode were shown in Table 8), and then being injected/intragastrically administered with the same solvent as that used in the chemotherapeutic agent group (the administration mode was shown in Table 8): the chemotherapeutic agent group: being administered with the same solvent as that used in the CDK inhibitor group (the time and mode were shown in Table 8), and then being injected/intragastrically administered with the chemotherapeutic agent (the type, administration mode and dosage were shown in Table 8): the oral administration group of the CDK inhibitor: being intragastrically administered with the CDK inhibitor (the time was shown in Table 8), and then being administered with the chemotherapeutic agent (the mode and dosage were shown in Table 8): the intravenous injection group of the CDK inhibitor: being injected with the CDK inhibitor through tail vein (the time was shown in Table 8), and then being administered with the chemotherapeutic agent (the mode and dosage were shown in Table 8): the intraperitoneal injection group of the CDK inhibitor: being intraperitoneally injected with the CDK inhibitor (the time was shown in Table 8), and then being administered with the chemotherapeutic agent (the mode and dosage were shown in Table 8): the intramuscular injection group of the CDK inhibitor: being intramuscularly injected with the CDK inhibitor (the time was shown in Table 8), and then being administered with the chemotherapeutic agent (the mode and dosage were shown in Table 8); and the local administration group of the CDK inhibitor: the hair on the abdomen of mice was shaved (about 2 cm*2 cm), being applied with the CDK inhibitor (the time was shown in Table 8), and then being administered with the chemotherapeutic agent (the mode and dosage were shown in Table 8).
as §3, §4

[4] = test system: diarrhea caused by a chemotherapeutic agent in Balb/c mice; test: Examples 230-271 (Table 4): oral CDK inhibitor, relief of diarrhea caused by a chemotherapeutic agent; details: Doxorubicin (Dox) intramuscular injection 10 mg/kg single, CDK inhibitor oral 40 mg/kg single, cycle 10 days
Text: as §1, with “4.” for “3.”, “4),” for “3),”, “4):” for “3):”, “4):” for “3);”, “4).” for “3).”
as §2

[5] = test system: diarrhea caused by a chemotherapeutic agent in Balb/c mice; test: Examples 343-381 (Table 6): oral versus intravenous CDK inhibitor, relief of diarrhea caused by a chemotherapeutic agent; details: Example 368, Topotecan (TP) intravenous injection 10 mg/kg single, 0.5 h before, cycle 10 days;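 note: percent of treated mice whose diarrhea grade fell below chemotherapy-group average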
Text: Balb/c mice were fed for 1 week, and then divided into groups. The experiment was divided into a control group, a chemotherapeutic agent group, and an oral administration group of a CDK inhibitor, and an intravenous injection group of a CDK inhibitor, each of which comprised 10 mice, to perform the administration experiment, for which the administration dosage, mode, time and frequency were shown in Table 6. The control group: being injected/intragastrically administered with the same solvent as that used in the CDK inhibitor group (the time was shown in Table 6), and then being injected/intragastrically administered with the same solvent as that used in the chemotherapeutic agent group (the administration mode was shown in Table 6): the chemotherapeutic agent group: being injected/intragastrically administered with the same solvent as that used in the CDK inhibitor group (the time was shown in Table 6), and then being injected/intragastrically administered with the chemotherapeutic agent (the type, administration mode and dosage were shown in Table 6): the oral administration group of the CDK inhibitor: being intragastrically administered with the CDK inhibitor (the time was shown in Table 6), and then being administered with the chemotherapeutic agent (the mode and dosage were shown in Table 6): the intravenous injection group of the CDK inhibitor: being injected with the CDK inhibitor through tail vein (the time was shown in Table 6), and then being administered with the chemotherapeutic agent (the mode and dosage were shown in Table 6).
as §2

CC[C@H](CO)Nc1nc(NCc2ccccc2)c2ncn(C(C)C)c2n1 [Seliciclib]
Relative remission rate (%) ([1]; Example 46, Fluorouracil (5-Fu) intravenous injection 175 mg/kg single, CDK inhibitor oral 250 mg/kg single 2 h before, cycle 10 days): 30% | Relative remission rate (%) ([1]; Example 118, Irinotecan (CPT-11) intraperitoneal injection 240 mg/kg single, CDK inhibitor oral 250 mg/kg single 6 h before, cycle 7 days): 30% | Relative remission rate (%) ([1]; Example 195, Gemcitabine 60 mg/kg and paclitaxel 10 mg/kg intravenous injection single, CDK inhibitor oral 400 mg/kg single, 0.5 h before, 8 days): 30% | Relative remission rate (%) ([1]; Example 199, Gemcitabine 60 mg/kg and paclitaxel 10 mg/kg intravenous injection single, CDK inhibitor oral 250 mg/kg single, 2 h before, 8 days): 20% | Relative remission rate (%) ([1]; Example 200, Gemcitabine 60 mg/kg and paclitaxel 10 mg/kg intraperitoneal injection single, CDK inhibitor oral 250 mg/kg single, 6 h before, 8 days): 40% | Relative remission rate ([2]; Example 321, Docetaxel (DTX) oral administration 30 mg/kg single, CDK inhibitor oral 400 mg/kg single, 3 h before): 20% | Relative remission rate of other administration mode ([3]; Example 442, Gemcitabine and Carboplatin oral administration 300 (G) 200 (C) mg/kg single, CDK inhibitor local administration 400 mg/kg single, 4 h before): 10% | Relative remission rate of oral administration ([3]; Example 442, Gemcitabine and Carboplatin oral administration 300 (G) 200 (C) mg/kg single, CDK inhibitor oral 400 mg/kg single, 4 h before): 20% | Relative remission rate of other administration mode ([3]; Example 443, Gemcitabine and Carboplatin oral administration 300 (G) 200 (C) mg/kg single, CDK inhibitor local administration 400 mg/kg single, 8 h before): 10% | Relative remission rate of oral administration ([3]; Example 443, Gemcitabine and Carboplatin oral administration 300 (G) 200 (C) mg/kg single, CDK inhibitor oral 400 mg/kg single, 8 h before): 20% | improvement of constipation by oral administration, intraperitoneal injection, intramuscular injection, local administration [3]: can significantly improve constipation

CCc1cnn2c(NCc3ccc[n+]([O-])c3)cc(N3CCCC[C@H]3CCO)nc12 [Dinaciclib]
Relative remission rate (%) ([1]; Example 131, Docetaxel (DTX) intraperitoneal injection 10 mg/kg single, CDK inhibitor oral 40 mg/kg single 0.5 h before, cycle 8 days): 10% | Relative remission rate (%) ([1]; Example 132, Docetaxel (DTX) intraperitoneal injection 10 mg/kg single, CDK inhibitor oral 40 mg/kg single 1 h before, cycle 8 days): 10% | Relative remission rate (%) ([1]; Example 133, Docetaxel (DTX) intraperitoneal injection 10 mg/kg single, CDK inhibitor oral 40 mg/kg single 2 h before, cycle 8 days): 20% | Relative remission rate (%) ([1]; Example 134, Docetaxel (DTX) intraperitoneal injection 10 mg/kg single, CDK inhibitor oral 40 mg/kg single 4 h before, cycle 8 days): 20% | Relative remission rate (%) ([1]; Example 135, Docetaxel (DTX) intraperitoneal injection 10 mg/kg single, CDK inhibitor oral 40 mg/kg single 6 h before, cycle 8 days): 30% | Relative remission rate (%) ([1]; Example 136, Docetaxel (DTX) intraperitoneal injection 10 mg/kg single, CDK inhibitor oral 40 mg/kg single 8 h before, cycle 8 days): 30% | Relative remission rate (%) ([1]; Example 137, Docetaxel (DTX) intraperitoneal injection 10 mg/kg single, CDK inhibitor oral 40 mg/kg single 10 h before, cycle 8 days): 30% | Relative remission rate (%) ([1]; Example 138, Docetaxel (DTX) intraperitoneal injection 10 mg/kg single, CDK inhibitor oral 40 mg/kg single 12 h before, cycle 8 days): 20% | Relative remission rate (%) ([1]; Example 139, Docetaxel (DTX) intraperitoneal injection 10 mg/kg single, CDK inhibitor oral 40 mg/kg single 14 h before, cycle 8 days): 20% | Relative remission rate (%) ([1]; Example 140, Docetaxel (DTX) intraperitoneal injection 10 mg/kg single, CDK inhibitor oral 40 mg/kg single 16 h before, cycle 8 days): 40% | Relative remission rate (%) ([1]; Example 141, Docetaxel (DTX) intraperitoneal injection 10 mg/kg single, CDK inhibitor oral 40 mg/kg single 18 h before, cycle 8 days): 30% | Relative remission rate (%) ([1]; Example 142, Docetaxel (DTX) intraperitoneal injection 10 mg/kg single, CDK inhibitor oral 40 mg/kg single 20 h before, cycle 8 days): 30% | Relative remission rate (%) ([1]; Example 143, Docetaxel (DTX) intraperitoneal injection 10 mg/kg single, CDK inhibitor oral 40 mg/kg single 22 h before, cycle 8 days): 20% | Relative remission rate (%) ([1]; Example 144, Docetaxel (DTX) intraperitoneal injection 10 mg/kg single, CDK inhibitor oral 40 mg/kg single 24 h before, cycle 8 days): 10% | Relative remission rate (%) ([1]; Example 145, Docetaxel (DTX) intraperitoneal injection 10 mg/kg single, CDK inhibitor oral 40 mg/kg single 48 h before, cycle 8 days): 0% | Relative remission rate (%) ([1]; Example 204, Gemcitabine 60 mg/kg and paclitaxel 10 mg/kg intraperitoneal injection single, CDK inhibitor oral 70 mg/kg single, 4 h before, 8 days): 30% | Relative remission rate ([4]; Example 240, 0.5 h before): 30% | Relative remission rate ([4]; Example 241, 12 h before): 20% | Relative remission rate ([4]; Example 242, 24 h before): 0% | Relative remission rate ([5]; CDK inhibitor intravenous injection 40 mg/kg single): 10% | Relative remission rate ([5]; CDK inhibitor oral 40 mg/kg single): 20%

Roniciclib
Relative remission rate (%) ([1]; Example 73, Oxaliplatin intraperitoneal injection 20 mg/kg single, CDK inhibitor oral 10 mg/kg single 6 h before, cycle 8 days): 30% | Relative remission rate (%) ([1]; Example 117, Irinotecan (CPT-11) intraperitoneal injection 240 mg/kg single, CDK inhibitor oral 10 mg/kg single 6 h before, cycle 7 days): 20% | Relative remission rate ([2]; Example 322, Docetaxel (DTX) intramuscular injection 20 mg/kg single, CDK inhibitor oral 1 mg/kg single, 5 h before): 10% | Relative remission rate of other administration mode ([3]; Example 420, Etoposide (Etop1) intravenous injection 100 mg/kg single, CDK inhibitor intraperitoneal injection 100 mg/kg single, 1 h before): 10% | Relative remission rate of oral administration ([3]; Example 420, Etoposide (Etop1) intravenous injection 100 mg/kg single, CDK inhibitor oral 1 mg/kg single, 1 h before): 20% | improvement of constipation by oral administration, intraperitoneal injection, intramuscular injection, local administration [3]: can significantly improve constipation
